One compound from patent US10183015B2, “Heterocyclic compounds and methods of use” (Medivation Technologies LLC, priority 2015, dated 2019) can be followed below.

Values joined by “and” are separate entries in the source; they are usually repeats but may differ in a detail not shown here. Equal entries are not always repeated.

What all share (assay type): in vivo
Data set [1] has as its system diet-induced NASH obese insulin resistant mice. Put plainly: DIN mouse model: NAS scores. Further details: total / steatosis / inflammation / fibrosis / hepatocyte ballooning: scale not given here. The protocol:
NAFLD score analysis. A 0.5 cm^3 piece of liver was fixed in 10% formalin for 48-72h, stored in ethanol 70° at 4° C., and processed for eosin/hematoxylin staining and NAFLD score analysis. One section (thickness 3-5 μm) per block was deposited on Superfrost+slides for hematoxylin-eosin staining. Individual slides having a single hepatic lobe section stained with H&E were digitized using a Nanozoomer from Hamamatsu. Sections were evaluated with knowledge of groups. Each section was evaluated and individually scored. A NAFLD scoring system (NAS) adapted from Kleiner et al. (Hepatology 41, 1313-21, 2005), Wu et al. (BMC Vet. Res. 10, 162, 2014), and Lee et al. (J. Lipid Res. 48, 1885-96, 2007). A total of four variables were qualitatively assessed and ranked with a score: (1) hepatocellular steatosis, (2) liver inflammation, (3) lobular fibrosis, and (4) hepatocyte ballooning.
(§1) Male C57Bl/6J mice (8 weeks old) were housed in enriched ventilated cages (31×12.5×12.7 cm) throughout the experimental phase. Animals' cages litters were changed at least once a week. Animal were housed 5 per cage on inverted 12-hour light cycle (at 09:00 am lights off), 22±2° C. and 55±10% relative humidity. The acclimation period was 20 days. During the acclimation period, all mice were fed a standard diet (RM1 (E) 801492, SDS) and tap water ad libitum. After the acclimation period, mice were fed with the DIN diet (60% fat, cholesterol enriched) and fructose-enriched tap water ad libitum until the end of the experiment.
(§2) At 6 weeks of diet, mice were 4-hour fasted (09:00 am to 1:00 pm) and blood (150 μl/EDTA) was collected at 01:00 pm by retro-orbital bleeding under isoflurane anesthesia. Mice were then allocated in 2 homogenous groups (n=12/group) according to their plasma levels of ALT (average levels: 685U/L), AST (average levels: 627U/L) and HOMA-IR index (average value: 4.7), into 2 homogenous groups (see values at day 0 in Tables 15A and 15B ALT/AST and Tables 16A and 16B for HOMA-IR). Mice were then treated once daily by oral gavage with vehicle (Group 1) or Compound #37 at 20 mg/kg (Group 2) for 70 days.
Each section was evaluated and individually scored using the modified NAFLD scoring system described above.

In data set [2] the test system is LDLR. As to the kind of experiment: DIN mouse model: hepatic LDLR gene expression. Set-up: key to LDLR 2^DDct: expression relative to vehicle group, normalized to 18S. The settings on record: liver, 20 mg/kg group. The protocol:
Gene expression analysis. Hepatic expression levels of genes involved in lipid metabolism (FAS, SREBP1, ACC1, SCD1), cholesterol metabolism (HMG-CoAR, LDLR), SREBP proteolysis (SCAP, INSIG1), ER stress (PERK), oxidative stress (NRF2), inflammation (MCP-1), and fibrosis (collagen 1α1) were quantified by RTqPCR. Expression level was normalized to 18S gene expression and relative expression to vehicle group was calculated with the […] method.
as §1, §2
Hepatic expression levels of genes involved in lipid (FAS, SREBP1, ACC1, SCD1), cholesterol metabolism (HMG-CoAR, LDLR), in SREBP proteolysis (SCAP, INSIG1), in ER stress (PERK), oxidative stress (NRF2), and inflammation (MCP-1) were not changed. However, expression of collagen 1α1, involved in liver fibrosis, was reduced by 66% in mice treated with Compound #37 (p<0.05 vs. vehicle).

Data set [3] in a line: ob/ob mice: tolerability, weight gain and food intake. The settings on record: over 8 weeks, all treatment groups. The protocol:
Groups of mice were either untreated (group 1) or treated for 8 weeks with vehicle (group 2), or with Compound #37 at 5 mg/kg (group 3), 10 mg/kg (group 4), or 20 mg/kg (group 5). Treatment was daily by oral gavage in vehicle (20% HPβCD). Values are presented as mean±standard error of the mean (sem). A t test was performed to compare the untreated group and the vehicle group. Then Compound #37-treated groups were compared to the vehicle-treated group with a 1-way ANOVA+Dunnett's post-test. […] For each test, a p<0.05 was considered significant. Of note, animal #39, group 1 was excluded from the statistical analysis, due to low values for all parameters measured. Some other values were considered as out-liners and excluded from the statistical analysis when the value was far below the mean minus 2 SD. Excluded values are marked with an asterisk in Tables 21-23.
These plasma lipid results are consistent with SCAP/SREBP pathway inhibition seen in tissue-specific SCAP knockout mice (Horton et al, 2002) and with inhibition of SREBP in vivo (Moon et al, 2012).

[4] abbreviates: NAS score, 20 mg/kg group, mean, n 11.
[5] abbreviates: individual animals, vs vehicle mean, 20 mg/kg.

For the compound `CC(C)Cc1cc(-c2nc(-c3ccc(NS(=O)(=O)C(F)(F)F)cc3Cl)cs2)ccn1` [Compound 37, N-(3-chloro-4-(2-(2-isobutylpyridin-4-yl)thiazol-4-yl)phenyl)-1,1,1-trifluoromethanesulfonamide], the inflammation score increase in data set [1] (20 mg/kg, 70 days, p<0.05 vs. vehicle) is 81%. This compound had a fibrosis score reduction in data set [1] (20 mg/kg, 70 days, p=0.055 vs. vehicle) of 45%. Besides, the total in data set [1] (NAS score, 20 mg/kg group, individual animal, 20 mg/kg) is 7 and 8 and 3 (2×) and 5 (2×) and 6 (4×) and 4. Besides, in data set [1] (setting [4]), the fibrosis is listed as 0.64, the hepatocyte ballooning was 1.91, the inflammation amounted to 0.91 and the steatosis amounted to 1.91. For the same compound, the total in data set [1] (setting [4]) is recorded as 5.36. In data set [2] (individual animals, normalised to 18S, 20 mg/kg), the “LDLR Dct” value is 12.37 and 11.75 and 14.3 and 12.94 and 13.5 and 12.33 and 12.03 and 12.22 and 12.97 and 13.44 and 11.28. Also, in data set [2] (setting [5]), the “LDLR 2^DDct” value is 1.65 and 2.54 and 0.43 and 1.11 and 0.76 and 1.7 and 2.09 and 1.84 and 1.09 and 0.79 and 3.52; the “LDLR DDct” value was −0.73 and −1.35 and 1.2 and −0.16 and 0.4 and −0.77 and −1.07 and −0.88 and −0.13 and 0.34 and −1.82. Also, the “LDLR (Ct)” value in data set [2] (individual animals, 20 mg/kg) is 24.92 (2×) and 24.3 and 27.14 and 25.37 and 25.85 and 23.76 and 24.73 and 24.47 and 24.99 and 23.63. In addition, in data set [2] (mean, n 11), the “LDLR 2^DDct” value turned out to be 1.59, the “LDLR (Ct)” value is given as 24.9, the “LDLR DDct” value was −0.45 and the “LDLR Dct” value amounted to 12.6. Further, in data set [3], the tolerability result is reported as “generally well tolerated”.
